Source: ChEMBL document CHEMBL4706529, “Design, synthesis and in vitro cell-free/cell-based biological evaluations of novel ERCC1-XPF inhibitors targeting DNA repair pathway” (Eur J Med Chem, 2020)
Active and inactive are the calls of the source. No cut-off for these calls is given here.

Assays:
[1] = target: T1, DNA excision repair protein ERCC-1/DNA repair endonuclease XPF (Homo sapiens) (UniProt P07992+Q92889); assay: Inhibition of human His-tagged ERCC1-XPF expressed in Escherichia coli BL21 (DE3) cells using 6-FAM-5'CAGCGCTCGG(20T)CCGAGCGCTG-3'-dabcyl at 10 uM measured for 12 mins by fluorescence incision assay
HCT-116 [2] = assay: Cytotoxicity against human HCT-116 cells assessed as reduction in cell viability at 2 uM after 3 days relative to control; assay type: cell-based; details: hct-116, 72 h, time 3 day
[3] = target: T2, DNA excision repair protein ERCC-1/DNA repair endonuclease XPF (Homo sapiens, UniProt P07992+Q92889); assay: Inhibition of human His-tagged human ERCC1-XPF expressed in Escherichia coli BL21 (DE3) cells using 6-FAM-5'CAGCGCTCGG(20T)CCGAGCGCTG-3'-dabcyl measured for 12 mins by fluorescence incision assay
T2 sequence (P07992 whole entry): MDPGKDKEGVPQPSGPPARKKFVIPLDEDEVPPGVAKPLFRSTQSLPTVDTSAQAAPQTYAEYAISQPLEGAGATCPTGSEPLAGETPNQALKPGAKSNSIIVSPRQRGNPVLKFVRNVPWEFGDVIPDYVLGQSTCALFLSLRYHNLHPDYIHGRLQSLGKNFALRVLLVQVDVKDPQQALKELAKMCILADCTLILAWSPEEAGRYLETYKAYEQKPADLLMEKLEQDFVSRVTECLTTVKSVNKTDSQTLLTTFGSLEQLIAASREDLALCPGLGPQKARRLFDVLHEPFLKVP
T2 sequence (Q92889 whole entry): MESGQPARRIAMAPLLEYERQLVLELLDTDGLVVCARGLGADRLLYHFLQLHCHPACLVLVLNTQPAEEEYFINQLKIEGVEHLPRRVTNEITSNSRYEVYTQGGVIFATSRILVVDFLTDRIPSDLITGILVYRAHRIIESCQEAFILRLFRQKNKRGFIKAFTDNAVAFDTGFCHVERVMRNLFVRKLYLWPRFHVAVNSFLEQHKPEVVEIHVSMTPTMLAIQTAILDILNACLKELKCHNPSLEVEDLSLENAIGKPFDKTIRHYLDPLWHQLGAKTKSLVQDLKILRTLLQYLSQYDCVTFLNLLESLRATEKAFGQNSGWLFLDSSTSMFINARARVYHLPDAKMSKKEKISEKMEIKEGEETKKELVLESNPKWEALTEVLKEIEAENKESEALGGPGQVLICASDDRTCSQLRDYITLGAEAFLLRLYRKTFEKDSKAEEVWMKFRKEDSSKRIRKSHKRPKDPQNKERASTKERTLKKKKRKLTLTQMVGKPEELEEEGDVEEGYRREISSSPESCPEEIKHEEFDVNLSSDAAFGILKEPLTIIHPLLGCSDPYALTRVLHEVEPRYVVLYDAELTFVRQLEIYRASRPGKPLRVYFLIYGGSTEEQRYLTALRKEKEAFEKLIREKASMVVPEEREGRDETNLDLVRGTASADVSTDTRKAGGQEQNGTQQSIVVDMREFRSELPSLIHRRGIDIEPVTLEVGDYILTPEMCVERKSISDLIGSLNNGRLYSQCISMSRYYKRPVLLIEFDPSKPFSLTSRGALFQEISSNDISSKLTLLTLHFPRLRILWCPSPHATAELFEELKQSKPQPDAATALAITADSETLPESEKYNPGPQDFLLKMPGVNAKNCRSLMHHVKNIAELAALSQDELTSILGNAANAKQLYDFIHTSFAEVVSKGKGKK

[4] = target: T1, DNA excision repair protein ERCC-1/DNA repair endonuclease XPF (Homo sapiens); assay: Inhibition of ERCC1-XPF in UV-radiated human HCT-116 cells assessed as cyclobutane pyrimidine dimer DNA repair at 2 uM preincubated for 1 hr followed by 8 J/m2 UV-C radiation and measured up to 24 hrs by IgG-Alexafluor antibody based fluorescent microscopic analysis (reference value: 16%); assay type: cell-based; parameters: scale not given: the % may be the effect or the level left; details: time hrs <=25
[5] = target: T1, DNA excision repair protein ERCC-1/DNA repair endonuclease XPF (Homo sapiens); assay: Binding affinity to His-tagged human ERCC1-XPF expressed in Escherichia coli BL21 (DE3) cells at 4 uM by steady-state fluorescence assay relative to control
HCT-116 [6] = assay: Antiproliferative activity against human HCT-116 cells assessed as sensitizing capacity by measuring reduction in cell survival at 2 uM in presence of cyclophosphamide by clonogenic survival assay; assay type: functional, cell-based
[7] = Binding affinity to 6-FAM-5'CAGCGCTCGG(20T)CCGAGCGCTG-3'-dabcyl (unknown origin) measured for 12 mins by fluorescence incision assay
[8] = target: T2, DNA excision repair protein ERCC-1/DNA repair endonuclease XPF; assay: Binding affinity to His-tagged human ERCC1-XPF expressed in Escherichia coli BL21 (DE3) cells by steady-state fluorescence assay
HCT-116 [9] = assay: Antiproliferative activity against human UV-radiated HCT-116 cells assessed as sensitizing capacity by measuring reduction in cell survival at 2 to 4 uM by clonogenic survival assay; assay type: functional, cell-based; details: dose 2-4 µM
HCT-116 [10] = assay: Cytotoxicity against human HCT-116 cells assessed as reduction in cell viability at >= 5 uM after 3 days; assay type: cell-based; details: hct-116, 72 h, time 3 day
HCT-116 [11] = assay: Antiproliferative activity against human UV-radiated HCT-116 cells assessed as sensitizing capacity by measuring reduction in cell survival at 2 uM by clonogenic survival assay; assay type: functional, cell-based
[12] = Cytotoxicity against human HCT-116 cells assessed as cell viability at 5 uM after 3 days relative to control; assay type: cell-based; details: time 3 day, read-out: Activity
HCT-116 [13] = assay: Antiproliferative activity against human HCT-116 cells assessed as sensitizing capacity by measuring reduction in cell survival at 4 uM in presence of cyclophosphamide by clonogenic survival assay; assay type: functional, cell-based
HCT-116 [14] = assay: Cytotoxicity against human HCT-116 cells assessed as reduction in cell viability at 5 to 20 uM after 3 days; assay type: cell-based; details: hct-116, 72 h, dose 5-20 µM, time 3 day

Q: Which inhibition [1] does the source give for CN1CCN(Cc2cc(N)ccc2O)CC1 here?
A: inactive

Q: For COc1ccc2c(Nc3ccc(O)c(CN(C)C)c3)ccnc2c1, which inhibition [1] is on record?
A: Active

Q: With CN1CCN(Cc2cc(Nc3c4ccc(Cl)cc4nc4ccc(O)cc34)ccc2O)CC1 as the compound, how does the inhibition [1] read?
A: Active

Q: For Oc1ccc2nc3cc(Cl)ccc3c(Cl)c2c1, which inhibition [1] is on record?
A: Active

Q: With COc1ccc2c(Cl)ccnc2c1 as the compound, how does the inhibition [1] read?
A: inactive

Q: With COc1cc(C#N)c(Nc2c3ccc(Cl)cc3nc3ccc(O)cc23)cc1OC as the compound, how does the inhibition [1] read?
A: Active

Q: Which results are given for CN(C)CCN1CCN(Cc2cc(Nc3c4ccc(Cl)cc4nc4ccc(O)cc34)ccc2O)CC1?
A: Activity (HCT-116 [2]): 95%; IC50 [3]: 490 nM; Activity [4]: 35%; Activity [5]: 25%; inhibition [1]: Active; Activity (HCT-116 [6]): Active; Kd [7]: 1050 nM; Kd [8]: 85 nM; Activity (HCT-116 [9]): Active

Q: With COc1ccc2c(Nc3ccc(O)cc3)ccnc2c1 as the compound, how does the inhibition [1] read?
A: inactive

Q: For COc1ccc2nc3cc(Cl)ccc3c(Nc3ccc(O)c(CN4CCN(C)CC4)c3)c2c1, which Activity (HCT-116 [10]) is on record?
A: Toxic

Q: And the Activity (HCT-116 [11])?
A: Active

Q: What about the viability at 72 h, 5 µM [12] of the same compound?
A: 35%

Q: And the inhibition [1]?
A: Active

Q: And the Kd [8]?
A: 140 nM

Q: Which inhibition [1] does the source give for COc1ccc2c(Nc3ccc(O)c(CN4CCN(CCN(C)C)CC4)c3)ccnc2c1 here?
A: Active

Q: Which inhibition [1] does the source give for COc1ccc2nc3cc(Cl)ccc3c(Cl)c2c1 here?
A: inactive

Q: With CN1CCN(Cc2cc(Nc3c4ccc(Cl)cc4nc4ccc(OCc5ccccc5)cc34)ccc2O)CC1 as the compound, how does the Activity (HCT-116 [13]) read?
A: inactive

Q: What about the Activity [5] of the same compound?
A: < 2%

Q: And the Activity (HCT-116 [14])?
A: Non-Toxic

Q: And the inhibition [1]?
A: Active

Q: And the Kd [7]?
A: 200 nM
